The numbers were not newly measured in patent publication US20090311266A1, “Inhibitors of the endothelin signalling pathway and alphavbeta3 integrin receptor antagonists for combination therapy” (BASF AKTIENGESELLSCHAFT, priority 1999, published 2009), which cites them from elsewhere.

Series [1] relates to ischemic complications after coronary interventions.
Series [2] has as its system porcine coronary injury model.
The subject of series [3] is pigs with coronary artery stents. To be noted: 28 days of oral treatment (b.i.d.).

On to “abciximab: anti-platelet integrin αIIbβ3 antibody abciximab (c7E3 Fab, Reopro®)”, for which, in series [1], the “suppression of ischemic complications (endpoints death, MI or repeat intervention)” value is listed as “sustained suppression of ischemic complications”.
Regarding cyclo[R-G-D-Mamb-A] [XJ 735], in series [2], the less lumen stenosis is 2.9 fold and the “reduction of neointimal hyperplasia” value was 43%.
On to `CCCCN(CCCC)C(=O)CN1C[C@H](c2ccc3c(c2)OCO3)[C@@H](C(=O)O)[C@@H]1c1ccc(OC)cc1` (relative stereo) [A 127722, trans-trans-2-(4-methoxyphenyl)-4-(3,4-methylendioxyphenyl)-1-(2-(N,N-dibutylamino)-2-oxoethyl)-pyrrolidine-3-carboxylic acid], for which, in series [3], the “maximal reduction in neointima formation” value is recorded as “about 30%”.
